Measured values reported in publication PMC5843811, “^44Sc for labeling of DOTA- and NODAGA-functionalized peptides: preclinical in vitro and in vivo investigations” (EJNMMI Radiopharmacy and Chemistry, 2016).

What was measured:
AR42J tumor-bearing mice = test: PET/CT imaging of AR42J tumor-bearing mice; conditions: 3 h after i.v. injection of ~10 MBq (~1 nmol; ^44Sc-NODAGA-NOC ~3 nmol), one or two mice
[1] = Biodistribution in AR42J tumor-bearing mice; conditions: female, CD-1 nude (athymic nude), mouse, iv, total radioactivity, i.v. ~5 MBq (~1 nmol), mean ± SD, n=3; for tissue to tissue ratio at 0.5 h / tissue uptake at 0.5 h: 30 min p.i.; for tissue to tissue ratio at 2 h / tissue uptake at 2 h: 2 h p.i.; for tissue to tissue ratio at 5 h / tissue uptake at 5 h: 5 h p.i.; for tissue uptake at 0.5 h / tissue uptake at 2 h / tissue uptake at 5 h: Biodistribution
[2] = AR42J tumor / blood, Tumor-to-blood ratio
[3] = AR42J tumor / kidneys, Tumor-to-kidney ratio
[4] = AR42J tumor / liver, Tumor-to-liver ratio

## C[C@@H](O)[C@@H]1NC(=O)[C@H](CCCCN)NC(=O)[C@@H](Cc2c[nH]c3ccccc23)NC(=O)[C@H](Cc2cccc3ccccc23)NC(=O)[C@@H](NC(=O)[C@@H](Cc2ccccc2)NC(=O)CCC(C(=O)O)N2CCN(CC(=O)O)CCN(CC(=O)O)CC2)CSSC[C@@H](C(=O)N[C@H](CO)[C@@H](C)O)NC1=O (some centres unmarked) [^44Sc-NODAGA-NOC, metal not drawn]
AR42J tumor-bearing mice
  PET/CT distribution of radioactivity (in words): accumulated solely in tumors and kidneys
[1]; [2]
  tissue to tissue ratio at 0.5 h: 5.23 ± 0.22
  tissue to tissue ratio at 2 h: 50.3 ± 16.8
  tissue to tissue ratio at 5 h: 78.6 ± 6.95
[1]; [3]
  tissue to tissue ratio at 0.5 h: 0.8 ± 0.1
  tissue to tissue ratio at 2 h: 1.22 ± 0.34
  tissue to tissue ratio at 5 h: 0.87 ± 0.24
[1]; [4]
  tissue to tissue ratio at 0.5 h: 8.13 ± 0.72
  tissue to tissue ratio at 5 h: 11.6 ± 1.51
[1]; AR42J tumor
  tissue uptake at 0.5 h: 9.9 ± 0.66 %ID/g
  tissue uptake at 2 h: 10.2 ± 1.17 %ID/g
  tissue uptake at 5 h: 10.8 ± 0.37 %ID/g
[1]; adrenals
  tissue uptake at 5 h: 2.87 ± 0.95 %ID/g
[1]; blood
  tissue uptake at 0.5 h: 1.89 ± 0.08 %ID/g
  tissue uptake at 2 h: 0.22 ± 0.06 %ID/g
  tissue uptake at 5 h: 0.14 ± 0.01 %ID/g
[1]; bone
  tissue uptake at 0.5 h: 1.38 ± 0.17 %ID/g
  tissue uptake at 5 h: 0.46 ± 0.06 %ID/g
[1]; brain
  tissue uptake at 0.5 h: 0.09 ± 0.01 %ID/g
  tissue uptake at 5 h: 0.06 ± 0.01 %ID/g
[1]; heart
  tissue uptake at 5 h: 0.3 ± 0.04 %ID/g
[1]; intestines, 5 MBq per mouse
  tissue uptake at 0.5 h: 0.74 ± 0.1 %ID/g
[1]; intestines
  tissue uptake at 2 h: 0.29 ± 0.07 %ID/g
  tissue uptake at 5 h: 0.38 ± 0.06 %ID/g
[1]; kidneys
  tissue uptake at 0.5 h: 12.4 ± 1.41 %ID/g
  tissue uptake at 2 h: 8.64 ± 1.62 %ID/g
  tissue uptake at 5 h: 13 ± 2.98 %ID/g
[1]; liver
  tissue uptake at 0.5 h: 1.22 ± 0.11 %ID/g
  tissue uptake at 2 h: 0.88 ± 0.15 %ID/g
  tissue uptake at 5 h: 0.94 ± 0.12 %ID/g
[1]; lung
  tissue uptake at 0.5 h: 4.28 ± 0.03 %ID/g
  tissue uptake at 2 h: 1.19 ± 0.28 %ID/g
  tissue uptake at 5 h: 0.89 ± 0.14 %ID/g
[1]; muscle
  tissue uptake at 0.5 h: 0.66 ± 0.08 %ID/g
  tissue uptake at 5 h: 0.26 ± 0.07 %ID/g
[1]; pancreas, 5 MBq per mouse
  tissue uptake at 0.5 h: 1.6 ± 0.12 %ID/g
  tissue uptake at 2 h: 1.12 ± 0.07 %ID/g
  tissue uptake at 5 h: 1.35 ± 0.29 %ID/g
[1]; spleen
  tissue uptake at 0.5 h: 0.91 ± 0.2 %ID/g
  tissue uptake at 2 h: 0.38 ± 0.05 %ID/g
  tissue uptake at 5 h: 0.47 ± 0.05 %ID/g
[1]; stomach, 5 MBq per mouse
  tissue uptake at 0.5 h: 1.45 ± 0.28 %ID/g
  tissue uptake at 2 h: 1.26 ± 0.22 %ID/g
  tissue uptake at 5 h: 1.24 ± 0.09 %ID/g
